Format in all cases: biochemical
Experiment [1] deals with Tyk2 (Homo sapiens, UniProt P29597). As to the kind of experiment: Enzyme activity inhibition of JAK kinases (ULight-JAK substrate, Eu-antibody): Tyk2. The settings on record: ATP 10 μM, 1 hour reaction at room temperature; read-out: Tyk2 half-maximum inhibitory concentration. As for the experimental part: (§1) 1× test buffer: The test buffer was prepared, and diluted with deionized water (deionized water: test buffer=9:1) to obtain the 1×test buffer. 4× kinase solution: JAK kinase was diluted 4-fold with the kinase reaction buffer to a final concentration (JAK1: 80 nM, JAK2/JAK3/Tyk2: 4 nM). 4×substrate solution: ULight™-JAK (Tyr1023) substrate was diluted with the kinase reaction buffer to 200 nM (final concentration: 50 nM). 4× ATP solution: ATP was diluted 4-fold with the kinase reaction buffer to a final concentration (JAK1: 160 μM, JAK2/JAK3/Tyk2: 40 μM). 4× test compound solution: The test compound was dissolved with DMSO to prepare 10 mM stock solutions, and diluted 3-fold serially to required concentrations, 10 concentrations were set for each compound, and final concentrations of the test compound ranged from 10 μM to 0.5 nM. 4× enzyme reaction stop solution: 1× test buffer was used dissolve EDTA to 40 mM (final concentration of EDTA: 10 mM). 4× test antibody solution: Eu-labeled test antibody (anti-phosphotyrosine (PT66)) was diluted with 1× test buffer to 8 nM (final concentration of antibody: 2 nM). […] After incubation of the antibody, a signal value of each well was measured via Envision plate reader. […]

For experiment [2], the target named is JAK2 (Homo sapiens, UniProt O60674). The experiment in a line: Enzyme activity inhibition of JAK kinases (ULight-JAK substrate, Eu-antibody): JAK2. The settings on record: JAK2 1 nM, ATP 10 μM, 1 hour reaction at room temperature; read-out: JAK2 half-maximum inhibitory concentration. On the procedure: as §1
Experiment [3] deals with JAK1 (Homo sapiens, UniProt P23458). As to the kind of experiment: Enzyme activity inhibition of JAK kinases (ULight-JAK substrate, Eu-antibody): JAK1. The conditions noted are these: JAK1 20 nM, ATP 40 μM, 2 hours reaction at room temperature; read-out: JAK1 half-maximum inhibitory concentration. On the procedure:
as §1

JAK2, sequence (O60674 whole entry): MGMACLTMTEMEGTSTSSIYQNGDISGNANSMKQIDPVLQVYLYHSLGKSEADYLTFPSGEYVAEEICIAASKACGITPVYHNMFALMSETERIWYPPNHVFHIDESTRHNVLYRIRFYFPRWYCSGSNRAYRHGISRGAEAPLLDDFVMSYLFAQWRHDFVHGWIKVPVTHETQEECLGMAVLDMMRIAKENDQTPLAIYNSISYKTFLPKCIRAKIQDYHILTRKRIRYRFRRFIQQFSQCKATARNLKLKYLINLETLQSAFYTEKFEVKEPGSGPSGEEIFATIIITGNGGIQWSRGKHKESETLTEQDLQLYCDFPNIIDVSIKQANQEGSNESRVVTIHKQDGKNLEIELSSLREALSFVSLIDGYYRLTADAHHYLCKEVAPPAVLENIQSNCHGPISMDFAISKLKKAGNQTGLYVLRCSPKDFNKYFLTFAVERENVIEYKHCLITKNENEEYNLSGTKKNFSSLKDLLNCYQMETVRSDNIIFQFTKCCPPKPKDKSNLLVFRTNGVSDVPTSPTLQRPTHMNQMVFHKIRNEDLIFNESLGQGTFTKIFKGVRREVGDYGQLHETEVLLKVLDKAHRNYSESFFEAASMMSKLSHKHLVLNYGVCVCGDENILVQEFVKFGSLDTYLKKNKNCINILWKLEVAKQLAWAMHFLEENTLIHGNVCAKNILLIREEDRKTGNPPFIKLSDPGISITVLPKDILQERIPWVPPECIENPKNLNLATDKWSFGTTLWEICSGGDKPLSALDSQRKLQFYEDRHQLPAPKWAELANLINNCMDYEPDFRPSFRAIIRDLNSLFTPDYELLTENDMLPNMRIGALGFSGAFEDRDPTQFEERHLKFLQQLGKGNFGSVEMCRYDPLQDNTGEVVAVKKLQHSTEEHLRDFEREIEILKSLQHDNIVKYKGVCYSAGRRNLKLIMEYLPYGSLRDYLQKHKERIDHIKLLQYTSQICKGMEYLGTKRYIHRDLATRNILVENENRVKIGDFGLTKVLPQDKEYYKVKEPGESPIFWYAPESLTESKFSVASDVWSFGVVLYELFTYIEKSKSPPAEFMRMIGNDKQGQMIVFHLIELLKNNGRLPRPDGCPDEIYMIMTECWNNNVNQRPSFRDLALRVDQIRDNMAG
Tyk2, sequence (P29597 whole entry): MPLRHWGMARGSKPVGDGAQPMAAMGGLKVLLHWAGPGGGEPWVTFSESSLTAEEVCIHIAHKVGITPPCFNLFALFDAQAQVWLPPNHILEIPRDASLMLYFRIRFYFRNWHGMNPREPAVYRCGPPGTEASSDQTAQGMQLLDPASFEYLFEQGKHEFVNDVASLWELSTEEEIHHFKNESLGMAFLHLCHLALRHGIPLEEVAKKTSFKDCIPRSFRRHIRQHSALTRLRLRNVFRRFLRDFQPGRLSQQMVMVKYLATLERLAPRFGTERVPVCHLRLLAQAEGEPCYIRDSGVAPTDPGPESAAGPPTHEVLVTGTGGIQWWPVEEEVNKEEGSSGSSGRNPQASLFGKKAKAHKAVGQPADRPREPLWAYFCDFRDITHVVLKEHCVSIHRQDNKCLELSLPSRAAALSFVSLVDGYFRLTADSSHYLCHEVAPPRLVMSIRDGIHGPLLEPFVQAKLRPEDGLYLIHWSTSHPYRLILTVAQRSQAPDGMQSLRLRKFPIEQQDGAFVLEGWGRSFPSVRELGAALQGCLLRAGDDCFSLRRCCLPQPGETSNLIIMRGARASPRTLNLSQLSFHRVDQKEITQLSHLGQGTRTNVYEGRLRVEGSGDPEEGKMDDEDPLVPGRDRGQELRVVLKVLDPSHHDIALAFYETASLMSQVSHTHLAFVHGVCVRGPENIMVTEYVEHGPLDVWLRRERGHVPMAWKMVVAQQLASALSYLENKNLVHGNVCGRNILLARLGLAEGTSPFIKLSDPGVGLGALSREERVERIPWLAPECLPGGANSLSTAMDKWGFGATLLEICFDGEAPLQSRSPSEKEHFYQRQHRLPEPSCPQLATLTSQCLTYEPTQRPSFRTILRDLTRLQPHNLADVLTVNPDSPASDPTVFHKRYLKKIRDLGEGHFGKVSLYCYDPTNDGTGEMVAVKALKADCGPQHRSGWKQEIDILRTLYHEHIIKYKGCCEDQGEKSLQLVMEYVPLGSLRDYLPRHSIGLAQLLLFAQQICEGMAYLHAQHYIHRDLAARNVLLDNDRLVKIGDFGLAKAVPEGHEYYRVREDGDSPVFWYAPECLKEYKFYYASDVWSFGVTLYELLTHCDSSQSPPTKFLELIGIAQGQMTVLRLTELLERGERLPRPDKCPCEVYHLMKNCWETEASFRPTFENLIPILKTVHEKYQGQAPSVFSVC
JAK1, sequence (P23458 whole entry): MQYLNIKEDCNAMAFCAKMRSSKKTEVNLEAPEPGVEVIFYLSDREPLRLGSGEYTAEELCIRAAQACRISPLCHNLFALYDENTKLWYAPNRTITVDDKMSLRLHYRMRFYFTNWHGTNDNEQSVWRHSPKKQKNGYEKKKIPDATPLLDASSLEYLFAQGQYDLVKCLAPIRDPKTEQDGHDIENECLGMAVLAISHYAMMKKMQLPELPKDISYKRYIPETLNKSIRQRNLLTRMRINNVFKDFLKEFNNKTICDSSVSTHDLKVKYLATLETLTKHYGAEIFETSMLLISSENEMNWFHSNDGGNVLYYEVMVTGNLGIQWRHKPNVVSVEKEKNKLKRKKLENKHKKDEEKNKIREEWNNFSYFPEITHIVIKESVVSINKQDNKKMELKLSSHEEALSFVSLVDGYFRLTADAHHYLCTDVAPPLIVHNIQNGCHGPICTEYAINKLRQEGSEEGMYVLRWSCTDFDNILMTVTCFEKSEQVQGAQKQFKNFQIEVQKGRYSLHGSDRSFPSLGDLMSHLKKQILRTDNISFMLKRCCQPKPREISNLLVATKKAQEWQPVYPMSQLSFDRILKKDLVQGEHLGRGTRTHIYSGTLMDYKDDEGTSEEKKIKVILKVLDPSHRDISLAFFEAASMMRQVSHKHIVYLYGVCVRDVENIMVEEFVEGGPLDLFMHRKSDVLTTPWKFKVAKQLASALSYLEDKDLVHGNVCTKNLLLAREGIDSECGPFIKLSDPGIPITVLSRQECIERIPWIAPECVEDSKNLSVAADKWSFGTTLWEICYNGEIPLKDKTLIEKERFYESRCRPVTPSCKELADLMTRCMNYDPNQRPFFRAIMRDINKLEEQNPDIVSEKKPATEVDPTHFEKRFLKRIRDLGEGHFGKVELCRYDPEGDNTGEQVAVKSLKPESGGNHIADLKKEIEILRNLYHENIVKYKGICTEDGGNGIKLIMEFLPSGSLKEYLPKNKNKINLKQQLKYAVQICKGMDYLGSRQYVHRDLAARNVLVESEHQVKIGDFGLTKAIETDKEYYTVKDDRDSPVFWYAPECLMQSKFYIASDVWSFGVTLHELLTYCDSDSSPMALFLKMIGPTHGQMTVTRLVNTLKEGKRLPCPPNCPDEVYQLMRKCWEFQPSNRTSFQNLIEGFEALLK

Take `Cn1cc(-c2cn3ncnc3c(-c3ccn([C@]4(CC#N)C[C@@H](C#N)C4)c3)n2)cn1` [TDM-181020, (1r,3r)-3-(cyanomethyl)-3-(3-(6-(1-methyl-1H-pyrazol-4-yl)-[1,2,4]triazolo[1,5-a]pyrazin-8-yl)-1H-pyrrol-1-yl)cyclobutane-1-carbonitrile]: the values for the IC50 in experiment [1] and in experiment [2] were 111 nM and 2420 nM, respectively.

Consider `Cn1cc(-c2cn3ncnc3c(-c3ccn([C@]4(CC#N)C[C@H](C#N)C4)c3)n2)cn1` [TDM-181021, (1s,3s)-3-(Cyanomethyl)-3-(3-(6-(1-Methyl-1H-Pyrazol-4-Yl)-[1,2,4]Triazolo[1,5-a]Pyrazin-8-Yl)-1H-Pyrrol-1-Yl)Cyclobutane-1-Carbonitrile], for which the IC50 in experiment [1] is 14 nM; in experiment [3], 1210 nM; in experiment [2], 138 nM.

The values above are taken from patent US20240043429A1, “TRIAZOLO PYRAZINE COMPOUND AND USE THEREOF” (TECHNODERMA MEDICINES, INC., priority 2020, published 2024).
